Data taken from patent US12673987B2, “Method to identify compounds useful to treat dysregulated lipogenesis, diabetes, and related disorders” (President and Fellows of Harvard College, priority 2017, dated 2026).

How the values were obtained:
aP2 [1] = target: T1, aP2 (Mus musculus, UniProt P04117); experiment: 8-Anilinonaphthalene-1-sulfonic acid (ANS) binding assay; set-up: His tag (cleaved yes); made in house; host or cells: Escherichia coli BL21DE3 (Pet28a plasmid)
T1 sequence (P04117 1-132): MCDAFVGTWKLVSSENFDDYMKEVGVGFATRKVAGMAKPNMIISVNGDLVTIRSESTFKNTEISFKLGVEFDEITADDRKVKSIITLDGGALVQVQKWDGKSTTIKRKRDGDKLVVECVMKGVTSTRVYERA
Method: (§1) 10 or 20 μM delipidated mouse recombinant aP2 protein with or without 10 μM 2-AG were diluted in 50 mM potassium phosphate buffer (pH 7.4) and incubated at 37C for overnight. The ratio of aP2 binding to 2-AG was determined by 8-Anilinonaphthalene-1-sulfonic acid (ANS) assay. For antibody neutralization, IgG, CA33, or CA15 antibody at final concentration of 20 μM was added to 50 mM potassium phosphate buffer (pH 7.4) only or to delipidated mouse recombinant aP2 protein (final 10 μM) with 2-AG (final 10 μM) solution in 50 mM potassium phosphate buffer (pH 7.4) and incubated at 37° C. overnight. Final concentration in culture media for aP2, 2-AG, and antibodies were 10, 10, and 20 nM, respectively.
aP2 or aP2/lipid solution (final aP2 concentration 1 μM) and ANS (final 5 μM) was diluted in 50 mM potassium phosphate buffer (pH 7.4) and fluorescence Ex/Em 375/475 was measured.

AMPK(Thr172) = experiment: AMPK phosphorylation in HepG2 cells by western blot; assay type: cell-based, human; settings: 5 μM alone
Method: (§2) For maintenance, HepG2 cells were cultured in DMEM containing 5.5 mM glucose (Gibco) supplemented with 10% FBS. For DNL and p-AMPK analysis, HepG2 cells were cultured in DMDM 3.3 mM glucose supplemented with 0.5% FBS, seeded 2×10^5 cells in 12 well plate or 4×10^5 cells in 6 well plate for DNL analysis and p-AMPK analysis, respectively.
(§3) For DNL analysis, after overnight culture, the cells were stimulated with conditioned media or 2-AG/aP2 complex and […] of ^3H2O were added 30 min after the stimulation (Gnoni et al., (1985) Biochem. & Biophysical Res. Comm. 128, 525-530; Lowenstein et al., Meth. Enzym. 35, 279-287). After 2 hours of incubation with ^3H2O, cells were washed with PBS and lysed with 0.1N NaOH. The cell lysate was analyzed for protein concentration and total lipid was extracted by Dole's extraction method (Dole et al., (1960) J. Biol. Chem. 235, 2595-2599). ^3H incorporation into de novo synthesized lipids were analyzed by scintillation count and calculated as count per μg protein. […] AMPK phosphorylation was determined by western blot (see below).
The antibodies used were rabbit anti-pAMPK (Cell Signaling), anti-actin HRP conjugated (Abcam), in-house anti-aP2 (H3) HRP conjugated antibodies. For quantification, Western blot images were captured and band intensities were analyzed using ImageJ software.

HepG2 cells [2] = experiment: DNL in HepG2 cells stimulated with 2-AG/aP2 complex (3H2O incorporation); assay type: cell-based, human; settings: for stimulation of DNL in HepG2 cells: final concentration in culture media 10 nM
Method: as §2
For DNL analysis, after overnight culture, the cells were stimulated with conditioned media or 2-AG/aP2 complex and […] of ^3H2O were added 30 min after the stimulation (Gnoni et al., (1985) Biochem. & Biophysical Res. Comm. 128, 525-530; Lowenstein et al., Meth. Enzym. 35, 279-287). After 2 hours of incubation with ^3H2O, cells were washed with PBS and lysed with 0.1N NaOH. The cell lysate was analyzed for protein concentration and total lipid was extracted by Dole's extraction method (Dole et al., (1960) J. Biol. Chem. 235, 2595-2599). ^3H incorporation into de novo synthesized lipids were analyzed by scintillation count and calculated as count per μg protein. For p-AMPK analysis, after overnight culture, cells were stimulated with conditioned media or 2-AG/aP2 complex for 30 min. The cells were washed twice with ice cold PBS and lysed with ice cold RIPA buffer (Cell Signaling) supplemented with 1 mM PMSF. AMPK phosphorylation was determined by western blot (see below).
as §1

3T3L1 adipocytes [3] = experiment: FFA release from 3T3L1 adipocytes; assay type: cell-based, murine; settings: adipocytes pretreated with 10 μM, starting 48 hours before collection of conditioned media
Method: (§4) Murine 3T3L1 adipocytes and human HepG2 cells were obtained from the ATCC. 3T3L1 adipocytes were maintained in Dulbecco Modified Eagle Medium (DMEM) containing 25 mM glucose (Gibco) supplemented with 10% cosmic calf serum (CCS), and adipocyte differentiation was induced as previously described (Ntambi et al., (1988) J. Biol. Chem. 263, 17291-17300). Briefly, preadipocytes were grown in 10 cm dishes until they are fully confluent. At confluent state, 10% bovine calf serum (BCS) containing DMEM medium was replaced with 10% fetal bovine serum (FBS) containing DMEM for two days. Differentiation was induced by FBS medium containing 5 μg/ml Insulin (Sigma, 15500), 0.5 mM IBMX (Sigma, 15879), 1 μM Dexamethasone (Sigma, D4902), and 1 μM Rosiglitazone (Cayman Chemical, 71740). After two days, medium was replaced with FBS medium containing 5 μg/ml Insulin every other day until the cells were completely differentiated at day 10. For siRNA experiment, differentiated 3T3-L1 adipocytes were transfected using Amaxa Nucleofector Kit L (Lonza, VCA-1005) according to the manufacturer's protocol. […]
Triglyceride (TG) levels were analyzed using triglyceride assay kit (Randox) and Cholesterol levels were analyzed using by Infinity cholesterol kid (Thermo Scientific). FFA levels in culture media were measured using a NEFA-HR2 kit (Wako) following the manufacturer's instructions.

3T3L1 adipocytes [4] = experiment: aP2 secretion from 3T3L1 adipocytes into conditioned media; assay type: cell-based, murine; settings: adipocytes pretreated with 10 μM, starting 48 hours before collection of conditioned media
Method: as §4, with “protocol. Briefly, differentiated adipocytes were trypsinized and centrifuged at 100 g for 10 minutes. 3×10^6 cells per 6-well were transfected with 120 pmol/sample Control siRNA (Dharmacon, D-001810-10) or mouse aP2 siRNA (Dharmacon, L-042923-01) using Nucleofector Program A-33.” for “protocol.”

HepG2 cells [5] = experiment: De novo lipogenesis (DNL) in HepG2 cells treated with conditioned media from lipolysis-stimulated adipocytes (3H2O incorporation); assay type: cell-based, human
Method: Murine 3T3L1 adipocytes and human HepG2 cells were obtained from the ATCC. 3T3L1 adipocytes were maintained in Dulbecco Modified Eagle Medium (DMEM) containing 25 mM glucose (Gibco) supplemented with 10% cosmic calf serum (CCS), and adipocyte differentiation was induced as previously described (Ntambi et al., (1988) J. Biol. Chem. 263, 17291-17300). Briefly, preadipocytes were grown in 10 cm dishes until they are fully confluent. At confluent state, 10% bovine calf serum (BCS) containing DMEM medium was replaced with 10% fetal bovine serum (FBS) containing DMEM for two days. Differentiation was induced by FBS medium containing 5 μg/ml Insulin (Sigma, 15500), 0.5 mM IBMX (Sigma, 15879), 1 μM Dexamethasone (Sigma, D4902), and 1 μM Rosiglitazone (Cayman Chemical, 71740). After two days, medium was replaced with FBS medium containing 5 μg/ml Insulin every other day until the cells were completely differentiated at day 10. For siRNA experiment, differentiated 3T3-L1 adipocytes were transfected using Amaxa Nucleofector Kit L (Lonza, VCA-1005) according to the manufacturer's protocol. Briefly, differentiated adipocytes were trypsinized and centrifuged at 100 g for 10 minutes. 3×10^6 cells per 6-well were transfected with 120 pmol/sample Control siRNA (Dharmacon, D-001810-10) or mouse aP2 siRNA (Dharmacon, L-042923-01) using Nucleofector Program A-33. Transfected cells were seeded in Collagen I coated 6-well plates (Corning, 356400). Conditioned media for stimulation of HepG2 cells were prepared in DMDM 3.3 mM glucose supplemented with 0.5% FBS before (basal) and after (lipolysis stimulated) the lipolysis stimulation with 1 mM IBMX. For explant studies, adipose tissue was removed from 8-12 weeks-old littermate mice, minced and washed 5× with DMEM high glucose supplemented with 10% CCS. Twenty pieces of adipose tissue were placed into 6-well plates in 2 ml DMEM high glucose with 10% CCS and incubated for 1 hr. Then conditioned media for stimulation of HepG2 cells were prepared in […] 3.3 mM glucose supplemented with 0.5% FBS before (basal) and after (lipolysis stimulated) the lipolysis stimulation with 1 mM 3-isobutyl-1-methylxanthine (IBMX). For antibody neutralization, 10 nM (for 3T3L1 cells) or 20 nM (for adipose tissue explant) of IgG, CA33, or CA15 antibody was added to DMDM 3.3 mM glucose supplemented with 0.5% FBS was used for the preparation of “basal” and “lipolysis stimulated” conditioned media.
as §2
as §3, with “After 2 hours of incubation with ^3H2O, cells were washed with PBS and lysed with 0.1N NaOH.” left out

aP2 [6] = target: T1, aP2; experiment: Microscale thermophoresis assay; assay type: binding; set-up: His tag (cleaved yes); made in house; settings: fluorescence labeled purified aP2 protein
Method: It has been reported that both 2-AG and AEA have similar affinity for the CB1 receptor (Stella et al., (1997) Nature 388, 773-778; Felder et al., (1993) PNAS 90, 7656-7660), and only the level of 2-AG in serum is regulated in obesity (Bluher et al., (2006) Diabetes 55, 3053-3060). The potential interaction between 2-AG and aP2 was tested. […] Finally, to resolve the mechanism and structural determinants of this interaction, aP2 and 2-AG was co-crystallized, confirming the ability of these two molecules to bind. In Ca superposition, the root mean square deviation (RMSD) between mouse 2-AG/FABP4 complex and apo mouse FABP4 structure was about 0.548 A (see FIG. 3G). […] Due to steric hindrance of the acyl chain of 2-AG, the Phe57 side chain was modelled as open position in the complex structure. The polar head group of 2-AG was stabilized by hydrogen bond interactions with R127, R107, Y129 and S54 of FABP4 (see FIG. 3H).

## CCCCC/C=C\C/C=C\C/C=C\C/C=C\CCCC(=O)OC(CO)CO [2-AG, 2-Arachidonoylglycerol]
aP2 [1]; after overnight incubation of delipidated recombinant aP2 with 2-AG
  binding of 2-AG to aP2 by ANS assay: confirmed binding
aP2 [1]; compared with mall (Fabp5)
  binding affinity of aP2 to the lipid, substrate competition with ANS: same affinity as does mall
AMPK(Thr172)
  dephosphorylation of AMPK(Thr172) in HepG2 cells: same level
HepG2 cells [2]
  stimulation of DNL in HepG2 cells: nor 2-AG alone stimulated DNL

## CCc1c(-c2ccccc2)c(-c2ccccc2)nn1-c1ccccc1-c1cccc(OCC(=O)O)c1 [BMS-309403]
3T3L1 adipocytes [3]
  FFA secretion: did not alter
3T3L1 adipocytes [4]
  aP2 secretion: did not alter
HepG2 cells [5]; 3T3L1 adipocytes pretreated with 10 μM, starting 48 hours before collection
  ability of conditioned media from lipolysis-stimulated 3T3L1 adipocytes to induce DNL in HepG2 cells: completely inhibited
HepG2 cells [5]; Fabp-deficient adipocytes pre-incubated with 10 μM
  effect on DNL in HepG2 cells treated with conditioned media from Fabp-deficient adipocytes: no additional or Fabp-independent effect on DNL
HepG2 cells [2]; added during 2-AG/aP2 complex formation
  effect of 2-AG/aP2 complex on DNL in HepG2 cells: eliminated the effect of 2-AG/aP2 complex on DNL

## Cc1c(C(=O)NN2CCCCC2)nn(-c2ccc(Cl)cc2Cl)c1-c1ccc(Cl)cc1 [Rimonabant]
HepG2 cells [5]; HepG2 cells treated with 1 μM
  induction of DNL by conditioned media from lipolysis-stimulated 3T3L1 adipocytes: completely inhibited induction of DNL

## CCCCCCCC/C=C\CCCCCCCC(=O)O [oleate]
aP2 [6]
  Kd of direct binding to aP2: an affinity similar to that observed for oleate

B1: aP2: delipidated mouse recombinant aP2 protein (adipocyte lipid binding protein) (protein)
chain: CDAFVGTWKLVSSENFDDYMKEVGVGFATRKVAGMAKPNMIISVNGDLVTIRSESTFKNTEISFKLGVEFDEITADDRKVKSIITLDGGALVQVQKWDGKSTTIKRKRDGDKLVVECVMKGVTSTRVYERA
HepG2 cells [5]; added to conditioned media from 3T3L1 adipocytes with siRNA-mediated aP2 suppression
  rescue of DNL in HepG2 cells: not sufficient to rescue DNL
HepG2 cells [2]
  stimulation of DNL in HepG2 cells: neither aP2 nor 2-AG alone stimulated DNL

B2: CA33: therapeutically active aP2 monoclonal antibody; the rabbit 909 heavy and light chain comprise CA33 (antibody, V domains shown)
VH: QSVEESGGRLVTPGTPLTLTCTVSGFSLSTYYMSWVRQAPGKGLEWIGIIYPSGSTYCASWAKGRFTISKASTTVDLKITSPTTEDTATYFCARPDNDGTSGYLSGFGLWGQGTLVTVSS
VL: DVVMTQTPASVSEPVGGTVTIKCQASEDISRYLVWYQQKPGQPPKRLIYKASTLASGVPSRFKGSGSGTDFTLTISDLECDDAATYYCQCTYGTYAGSFFYSFGGGTEVVVE
modifications: Rabbit Ab 909 VH region; Rabbit Ab 909 VL-region
HepG2 cells [5]; antibody (10 nM for 3T3L1 cells) added to conditioned media, IBMX lipolysis stimulation
  induction of DNL by conditioned media from lipolysis stimulated adipocytes in HepG2 cells: completely prevented the induction of DNL
HepG2 cells [2]; complex formed in the presence of antibody (20 μM, final 20 nM in culture media)
  ability of 2-AG/aP2 complex to regulate DNL in HepG2 cells: lost its ability to regulate DNL
